In brackets after ≈: the same amount, converted by molar mass.

Data set [1] in a line: Modulation of gamma-secretase in CHO cells expressing human APP695 assessed as inhibition of Abeta42 level after 20 hrs by FRET HTS assay. Format: cell-based. The conditions noted are these: Cricetulus griseus.
Data set [2] in a line: Kinetic solubility in PBS buffer at pH 7.4 by UV/vis absorbance analysis. The format is physicochemical. The conditions noted are these: read-out: Kinetic_solubility.
For data set [3], the target named is Gamma-secretase. Briefly: Modulation of gamma-secretase in human SH-SY5Y cells overexpressing wild-type human APP751 assessed as inhibition of Abeta42 level after 24 hrs by ELISA. The format is cell-based. (In general: ELISA stands for enzyme-linked immunosorbent assay.)

Consider `CCc1cc(Nc2nc(-c3ccc(-n4cnc(C)c4)c(F)c3)cs2)c(C)cc1C`, for which the IC50 in data set [1] turned out to be 10 nM. Regarding `CCn1nc2c(c1Nc1nc(-c3ccc(-n4cnc(C)c4)c(F)c3)cs1)CCC2`, the solubility kinetic in data set [2] was under 1.6 µM. In addition, the IC50 in data set [3] was determined as 41 nM. In the case of `Cc1cn(-c2ccc(-c3csc(Nc4c5c(nn4C(C)(C)C)CCC5)n3)cc2F)cn1`, the IC50 in data set [3] turned out to be 175 nM. Same read-out and setting: the figure for `Cc1cn(-c2ccc(-c3csc(Nc4cc(C(C)(C)C)nn4C)n3)cc2F)cn1` is 294 nM; for `CCn1nc2c(c1N(C)c1nc(-c3ccc(-n4cnc(C)c4)c(F)c3)cs1)CCCC2` it is over 1000 nM.

On to `CCn1nc(C(F)(F)F)cc1Nc1nc(-c2ccc(-n3cnc(C)c3)c(F)c2)cs1`, for which the solubility kinetic in data set [2] was under 1.6 µM. Further, in data set [3], the IC50 was 110 nM. As for `Cc1cn(-c2ccc(-c3csc(Nc4c5c(nn4CCN4CCCCC4)CCCC5)n3)cc2F)cn1`, in data set [2], the solubility kinetic worked out at 8.1 µM (≈ 4.1 µg/mL). Besides, the half-inhibitory concentration (IC50) in data set [3] worked out at 475 nM. For `Cc1cn(-c2ccc(-c3csc(Nc4c5c(nn4CC(F)(F)F)CCCC5)n3)cc2F)cn1`, the IC50 in data set [3] came out at 179 nM.

As for `Cc1cn(-c2ccc(-c3csc(Nc4c5c(nn4CCO)CCCC5)n3)cc2F)cn1`, the solubility kinetic in data set [2] was found to be 15 µM (≈ 6.58 µg/mL). The IC50 in data set [3] is 362 nM. Regarding `CCn1nc2c(c1Nc1nc(-c3ccc(-n4cnc(C)c4)c(F)c3)cs1)CCCCC2`, the IC50 in data set [3] came to 114 nM.

For the compound `Cc1cn(-c2ccc(-c3csc(Nc4c5c(nn4C)CCC5)n3)cc2F)cn1`, in data set [3], the 50% inhibitory concentration (IC50) is over 1000 nM. Same read-out and setting: next, `Cc1cn(-c2ccc(-c3csc(Nc4c5c(nn4C(C)(C)C)CCCC5)n3)cc2F)cn1`: 216 nM.

With `CCn1nc2c(c1Nc1nc(-c3ccc(-n4cnc(C)c4)c(F)c3)cs1)C(C)CC2(C)C` (stereo not drawn), in data set [2], the solubility kinetic was 2.6 µM (≈ 1.17 µg/mL). For the same compound, the IC50 in data set [3] worked out at 49 nM.

For `CCn1nc(C(C)C)cc1Nc1nc(-c2ccc(-n3cnc(C)c3)c(F)c2)cs1`, the half-inhibitory concentration (IC50) in data set [3] was determined as 394 nM.

Turning to `CCCn1nc2c(c1Nc1nc(-c3ccc(-n4cnc(C)c4)c(F)c3)cs1)CCCC2`, in data set [3], the half-inhibitory concentration (IC50) stood at 148 nM. Turning to `Cc1cn(-c2ccc(-c3csc(Nc4c5c(nn4C4CCC4)CCCC5)n3)cc2F)cn1`, in data set [2], the solubility kinetic was under 1.6 µM. Further, in data set [3], the half-maximal inhibitory concentration (IC50) was 112 nM. On to `Cc1cn(-c2ccc(-c3csc(Nc4c5c(nn4C4CCCC4)CCCC5)n3)cc2F)cn1`, for which, in data set [3], the IC50 was 225 nM.

Take `Cc1cn(-c2ccc(-c3csc(Nc4c5c(nn4CC(C)(C)O)CCCC5)n3)cc2F)cn1`: the solubility kinetic in data set [2] was under 1.6 µM. Further, in data set [3], the IC50 amounted to 55 nM. Take `CCn1nc2c(c1Nc1nc(-c3ccc(-n4cnc(C)c4)c(F)c3)cs1)CCCC2`: the 50% inhibitory concentration (IC50) in data set [3] was determined as 163 nM. The same measure, in the same setting: the figure for `Cc1cn(-c2ccc(-c3csc(Nc4cc(C(F)(F)F)nn4CC(F)(F)F)n3)cc2F)cn1` is 771 nM.

As to `Cc1cn(-c2ccc(-c3csc(Nc4c5c(nn4C4CCCCC4)CCCC5)n3)cc2F)cn1`, the IC50 in data set [3] came to 280 nM. As to `Cc1cn(-c2ccc(-c3csc(Nc4c5c(nn4C4CCN(C)CC4)CCCC5)n3)cc2F)cn1`, the solubility kinetic in data set [2] was 2.8 µM (≈ 1.38 µg/mL). Further, the IC50 in data set [3] is over 1000 nM. As to `Cc1cn(-c2ccc(-c3csc(Nc4c5c(nn4CCCN4CCOCC4)CCCC5)n3)cc2F)cn1`, the solubility kinetic in data set [2] came to 16 µM (≈ 8.35 µg/mL). Besides, in data set [3], the IC50 came out at 270 nM.

In the case of `Cc1cn(-c2ccc(-c3csc(Nc4cc(C(C)(C)C)nn4CC(F)(F)F)n3)cc2F)cn1`, the solubility kinetic in data set [2] was under 1.6 µM. The half-maximal inhibitory concentration (IC50) in data set [3] stood at 87 nM.

For `Cc1cn(-c2ccc(-c3csc(Nc4c5c(nn4CCN4CCOCC4)CCCC5)n3)cc2F)cn1`, in data set [3], the IC50 is over 1000 nM. Regarding `CCn1nc(C2(C)CC2)cc1Nc1nc(-c2ccc(-n3cnc(C)c3)c(F)c2)cs1`, in data set [2], the solubility kinetic is under 1.6 µM. In addition, the IC50 in data set [3] is 67 nM.

On to `Cc1cn(-c2ccc(-c3csc(Nc4c5c(nn4C(C)C)CCCC5)n3)cc2F)cn1`, for which the 50% inhibitory concentration (IC50) in data set [3] is 195 nM. In the case of `CCn1nc2c(c1Nc1nc(-c3ccc(-n4cnc(C)c4)c(F)c3)cs1)CCC2(C)C`, the solubility kinetic in data set [2] was 2.1 µM (≈ 0.917 µg/mL). In data set [3], the IC50 amounted to 62 nM. The corresponding values for `CCCn1nc(C(C)(C)C)cc1Nc1nc(-c2ccc(-n3cnc(C)c3)c(F)c2)cs1` are under 1.6 µM and 86 nM. On to `Cc1cn(-c2ccc(-c3csc(Nc4[nH]nc5c4CCCC5)n3)cc2F)cn1`, for which the 50% inhibitory concentration (IC50) in data set [3] is over 1000 nM. Regarding `Cc1cn(-c2ccc(-c3csc(Nc4c5c(nn4C(C)C)CCC5)n3)cc2F)cn1`, the solubility kinetic in data set [2] is under 1.6 µM. In addition, the IC50 in data set [3] amounted to 66 nM. For `Cc1cn(-c2ccc(-c3csc(Nc4c5c(nn4C4CCOC4)CCCC5)n3)cc2F)cn1` (stereo not drawn), in data set [3], the IC50 turned out to be 289 nM. With `Cc1cn(-c2ccc(-c3csc(Nc4cc(C(C)(C)C)nn4C(C)(C)C)n3)cc2F)cn1`, in data set [2], the solubility kinetic is 2 µM (≈ 0.905 µg/mL). Also, the IC50 in data set [3] was found to be 85 nM. With `Cc1cn(-c2ccc(-c3csc(Nc4c5c(nn4C)CCCC5)n3)cc2F)cn1`, the half-maximal inhibitory concentration (IC50) in data set [3] amounted to 208 nM.

`Cc1cn(-c2ccc(-c3csc(Nc4c5c(nn4CC(F)(F)F)CCC5)n3)cc2F)cn1`: the solubility kinetic in data set [2] was under 1.6 µM. Besides, the IC50 in data set [3] turned out to be 94 nM. In the case of `Cc1cn(-c2ccc(-c3csc(Nc4c5c(nn4C4CCC4)CCC5)n3)cc2F)cn1`, the solubility kinetic in data set [2] was under 1.6 µM. In data set [3], the half-inhibitory concentration (IC50) stood at 92 nM.

As for `Cc1cn(-c2ccc(-c3csc(Nc4c5c(nn4CCCO)CCCC5)n3)cc2F)cn1`, the IC50 in data set [3] amounted to 229 nM. Regarding `Cc1cn(-c2ccc(-c3csc(Nc4c5c(nn4CCF)CCCC5)n3)cc2F)cn1`, the concentration for half-maximal inhibition (IC50) in data set [3] worked out at 110 nM. Regarding `Cc1cn(-c2ccc(-c3csc(Nc4c5c(nn4CCO)CCC5)n3)cc2F)cn1`, the solubility kinetic in data set [2] was under 1.6 µM. In addition, the half-maximal inhibitory concentration (IC50) in data set [3] is over 1000 nM. As for `CCn1nccc1Nc1nc(-c2ccc(-n3cnc(C)c3)c(F)c2)cs1`, in data set [3], the IC50 was over 1000 nM. Regarding `Cc1cn(-c2ccc(-c3csc(Nc4c5c(nn4C4CCOCC4)CCCC5)n3)cc2F)cn1`, in data set [3], the 50% inhibitory concentration (IC50) was determined as 766 nM.

`Cc1cn(-c2ccc(-c3csc(Nc4cc(C(F)(F)F)nn4C(C)(C)C)n3)cc2F)cn1`: in data set [3], the half-inhibitory concentration (IC50) is 121 nM. On the same count and under the same terms, next, `Cc1cn(-c2ccc(-c3csc(Nc4cc(C(C)(C)C)nn4C(C)C)n3)cc2F)cn1`: 87 nM. `COCCn1nc2c(c1Nc1nc(-c3ccc(-n4cnc(C)c4)c(F)c3)cs1)CCCC2`: the solubility kinetic in data set [2] is 2.3 µM (≈ 1.04 µg/mL). The concentration for half-maximal inhibition (IC50) in data set [3] is 272 nM.

By IC50 is commonly meant the concentration needed to halve the response being measured.

Source of the values: ChEMBL document CHEMBL4428049, “Design and synthesis of aminothiazole modulators of the gamma-secretase enzyme” (Bioorg Med Chem Lett, 2016).
